Measurements published in patent publication US10597388B2, “Pyridazinone herbicides” (FMC CORPORATION, priority 2014, dated 2020).

Experiments:
Assay type in all cases: in vivo
[1] = test system: blackgrass (Alopecurus myosuroides); assay: Test A greenhouse herbicide test, postemergence; conditions: for Plant response rating, Blackgrass: 125 g ai/ha, 0 to 100 scale where 0 is no effect and 100 is complete control; for Blackgrass plant response rating: 500 g ai/ha, 0 to 100 scale, 0 is no effect, 100 is complete control
How it was run: (§1)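 Greenhouse postemergence test: formulated chemicals sprayed on one- to two-leaf plants (2 to 10 cm), grown in loam soil blended with sand. Injury assessed visually about 10 d later against untreated controls, scored 0 (no effect) to 100 (complete control).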

[2] = test system: galium (catchweed bedstraw, Galium aparine); assay: Test A greenhouse herbicide test, postemergence; conditions: for Plant response rating, Galium: 125 g ai/ha, 0 to 100 scale where 0 is no effect and 100 is complete control; for Galium plant response rating: 500 g ai/ha, 0 to 100 scale, 0 is no effect, 100 is complete control
How it was run: as §1

corn (Zea mays) = assay: Test C greenhouse herbicide test, pre- and postemergence
How it was run: (§2)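 Each species was treated both before emergence, in a loam–sand soil mix, and after emergence, as 1- to 4-leaf seedlings in peat-based potting medium. Plants stayed in the greenhouse 13 to 15 d, then were scored from 0 (no effect) to 100 (complete control) relative to controls.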

[3] = test system: ryegrass, Italian (Italian ryegrass, Lolium multiflorum); assay: as above
How it was run: as §2

[4] = test system: barnyardgrass (Echinochloa crus-galli); assay: Test A greenhouse herbicide test, pre- and postemergence
How it was run: (§3)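 Seeds sown in loam–sand blend got a preemergence directed soil spray of compound in non-phytotoxic solvent with surfactant. Postemergence treatment was given at 2–10 cm, one- to two-leaf stage. After ~10 d in greenhouse, injury was rated visually vs untreated controls, 0 (no effect) to 100 (complete control).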

[5] = test system: ragweed (common ragweed, Ambrosia elatior); assay: as above
How it was run: as §3

kochia (Kochia scoparia) = assay: as above
How it was run: as §3

[6] = test system: foxtail, giant (giant foxtail, Setaria faberii); assay: as above
How it was run: as §3

[7] = test system: pigweed (Amaranthus retroflexus); assay: as above
How it was run: as §3

[8] = test system: ryegrass, Italian (Italian ryegrass, Lolium multiflorum); assay: as above
How it was run: as §3

[9] = test system: wheat (Triticum aestivum); assay: as above; conditions: Postemergence; for Plant response rating, Wheat: 125 g ai/ha, 0 to 100 scale where 0 is no effect and 100 is complete control; for Wheat plant response rating: 500 g ai/ha, 0 to 100 scale, 0 is no effect, 100 is complete control
How it was run: as §3

[10] = Postemergence, 31 g ai/ha, 0 to 100 scale (0 no effect, 100 complete control)
[11] = Postemergence, 125 g ai/ha, scale 0 to 100, 0 is no effect, 100 is complete control
[12] = Postemergence, 250 g ai/ha, scale 0 to 100, 0 no effect, 100 complete control, 13 to 15 d
[13] = Preemergence, 31 g ai/ha, scale 0 to 100, 0 is no effect, 100 is complete control
[14] = Preemergence, 62 g ai/ha, scale 0 to 100, 0 is no effect, 100 is complete control
[15] = Preemergence, 125 g ai/ha, scale 0 to 100, 0 is no effect, 100 is complete control
[16] = Preemergence, 250 g ai/ha, scale 0 to 100 (0 no effect, 100 complete control)
[17] = postemergence, 62 g ai/ha, scale 0 to 100, 0 no effect, 100 complete control
[18] = Postemergence, 125 g ai/ha, 0 to 100 scale where 0 is no effect and 100 is complete control
[19] = Postemergence, 500 g ai/ha, 0 to 100 scale, 0 is no effect, 100 is complete control
[20] = Preemergence, 125 g ai/ha, 0 to 100 scale where 0 is no effect and 100 is complete control
[21] = Preemergence, 500 g ai/ha, 0 to 100 scale where 0 is no effect and 100 is complete control

C#CCOC(=O)Oc1c(C)nn(C)c(=O)c1-c1c(C)sc2ccc(C)cc12 [Compound 87]
Plant response rating, Blackgrass [1]: 80
Blackgrass plant response rating [1]: 80
Plant response rating, Galium [2]: 90
Galium plant response rating [2]: 90
Corn plant response rating (corn (Zea mays); [10]): 5
Plant response rating, Corn (corn (Zea mays); [11]): 30
Plant response rating, Corn (corn (Zea mays); [12]): 5
Plant response rating, Corn (corn (Zea mays); [13]): 0
Plant response rating, Corn (corn (Zea mays); [14]): 10
Plant response rating, Corn (corn (Zea mays); [15]): 0
Corn plant response rating (corn (Zea mays); [16]): 10
Corn plant response rating (corn (Zea mays); [17]): 5
Plant response rating, Ryegrass, Italian [3, 11]: 85
Plant response rating, Ryegrass, Italian [3, 12]: 85
Plant response rating, Ryegrass, Italian [3, 13]: 35
Plant response rating, Ryegrass, Italian [3, 14]: 90
Plant response rating, Ryegrass, Italian [3, 15]: 90
Ryegrass, Italian plant response rating [3, 16]: 90
Ryegrass, Italian plant response rating [3, 17]: 80
Plant response rating, Barnyardgrass [4, 18]: 40
Barnyardgrass plant response rating [4, 19]: 80
Barnyardgrass plant response rating [4, 20]: 50
Plant response rating, Barnyardgrass [4, 21]: 80
Plant response rating, Ragweed [5, 18]: 80
Ragweed plant response rating [5, 19]: 90
Ragweed plant response rating [5, 20]: 70
Plant response rating, Ragweed [5, 21]: 80
Plant response rating, Kochia (kochia (Kochia scoparia); [18]): 90
Kochia plant response rating (kochia (Kochia scoparia); [19]): 90
Kochia plant response rating (kochia (Kochia scoparia); [20]): 80
Plant response rating, Kochia (kochia (Kochia scoparia); [21]): 90
Plant response rating, Foxtail, Giant [6, 18]: 70
Foxtail, Giant plant response rating [6, 19]: 80
Foxtail, Giant plant response rating [6, 20]: 80
Plant response rating, Foxtail, Giant [6, 21]: 100
Plant response rating, Pigweed [7, 18]: 80
Pigweed plant response rating [7, 19]: 90
Pigweed plant response rating [7, 20]: 100
Plant response rating, Pigweed [7, 21]: 100
Plant response rating, Ryegrass, Italian [8, 18]: 80
Ryegrass, Italian plant response rating [8, 19]: 80
Ryegrass, Italian plant response rating [8, 20]: 90
Plant response rating, Ryegrass, Italian [8, 21]: 100
Plant response rating, Wheat [9]: 0
Wheat plant response rating [9]: 0

CC(=O)Oc1c(C)nn(C)c(=O)c1-c1ccc(F)c2ccccc12 [Compound 90]
Plant response rating, Blackgrass [1]: 70
Blackgrass plant response rating [1]: 90
Plant response rating, Galium [2]: 100
Galium plant response rating [2]: 100
Corn plant response rating (corn (Zea mays); [10]): 5
Plant response rating, Corn (corn (Zea mays); [11]): 10
Plant response rating, Corn (corn (Zea mays); [12]): 25
Plant response rating, Corn (corn (Zea mays); [13]): 0
Plant response rating, Corn (corn (Zea mays); [14]): 0
Plant response rating, Corn (corn (Zea mays); [15]): 5
Corn plant response rating (corn (Zea mays); [16]): 30
Corn plant response rating (corn (Zea mays); [17]): 10
Plant response rating, Ryegrass, Italian [3, 11]: 90
Plant response rating, Ryegrass, Italian [3, 12]: 90
Plant response rating, Ryegrass, Italian [3, 13]: 90
Plant response rating, Ryegrass, Italian [3, 14]: 95
Plant response rating, Ryegrass, Italian [3, 15]: 95
Ryegrass, Italian plant response rating [3, 16]: 95
Ryegrass, Italian plant response rating [3, 17]: 90
Plant response rating, Barnyardgrass [4, 18]: 80
Barnyardgrass plant response rating [4, 19]: 100
Barnyardgrass plant response rating [4, 20]: 60
Plant response rating, Barnyardgrass [4, 21]: 100
Plant response rating, Ragweed [5, 18]: 100
Ragweed plant response rating [5, 19]: 100
Ragweed plant response rating [5, 20]: 90
Plant response rating, Ragweed [5, 21]: 100
Plant response rating, Kochia (kochia (Kochia scoparia); [18]): 100
Kochia plant response rating (kochia (Kochia scoparia); [19]): 100
Kochia plant response rating (kochia (Kochia scoparia); [20]): 70
Plant response rating, Kochia (kochia (Kochia scoparia); [21]): 100
Plant response rating, Foxtail, Giant [6, 18]: 80
Foxtail, Giant plant response rating [6, 19]: 100
Foxtail, Giant plant response rating [6, 20]: 50
Plant response rating, Foxtail, Giant [6, 21]: 100
Plant response rating, Pigweed [7, 18]: 100
Pigweed plant response rating [7, 19]: 100
Pigweed plant response rating [7, 20]: 100
Plant response rating, Pigweed [7, 21]: 100
Plant response rating, Ryegrass, Italian [8, 18]: 100
Ryegrass, Italian plant response rating [8, 19]: 100
Ryegrass, Italian plant response rating [8, 20]: 100
Plant response rating, Ryegrass, Italian [8, 21]: 100
Plant response rating, Wheat [9]: 20
Wheat plant response rating [9]: 30
